Source: patent publication US20250051327A1, “MALT-1 MODULATORS” (EXSCIENTIA AI LIMITED, priority 2020, published 2025)
Structures can show the parent of a compound that is named as a salt.

What was measured:
[1] = tested on: IL-2 secretion by human effector memory T cells (TEM); assay: Effector memory T cells IL-2 release assay; format: cell-based; settings: T-cell; human CD4+ effector memory T cells, CD3/CD28 bead stimulation, 24 h; read-out: CD4TC IL2 IC50
Outline: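 Human CD4+ effector memory T cells from healthy-donor buffy coats were stimulated with anti-CD3/CD28 Dynabeads and exposed to 10 semi-log compound doses (0.1% DMSO) for 24 h at 37 °C. Supernatant IL-2 was measured by HTRF, and IC50 came from a 4-parameter logistic fit to maximal IL-2. Viability was checked by flow cytometry.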

[2] = molecular target: Recombinant human MALT-1 (amino acids 340-824) (Homo sapiens (Human), UniProt Q9UDY8); assay: MALT-1 inhibition assay (fluorogenic substrate Ac-LRSR-Rh110-DP); format: biochemical; settings: recombinant human MALT-1, substrate Ac-LRSR-Rh110-DP
Sequence of Recombinant human MALT-1 (amino acids 340-824) (Q9UDY8 340-824): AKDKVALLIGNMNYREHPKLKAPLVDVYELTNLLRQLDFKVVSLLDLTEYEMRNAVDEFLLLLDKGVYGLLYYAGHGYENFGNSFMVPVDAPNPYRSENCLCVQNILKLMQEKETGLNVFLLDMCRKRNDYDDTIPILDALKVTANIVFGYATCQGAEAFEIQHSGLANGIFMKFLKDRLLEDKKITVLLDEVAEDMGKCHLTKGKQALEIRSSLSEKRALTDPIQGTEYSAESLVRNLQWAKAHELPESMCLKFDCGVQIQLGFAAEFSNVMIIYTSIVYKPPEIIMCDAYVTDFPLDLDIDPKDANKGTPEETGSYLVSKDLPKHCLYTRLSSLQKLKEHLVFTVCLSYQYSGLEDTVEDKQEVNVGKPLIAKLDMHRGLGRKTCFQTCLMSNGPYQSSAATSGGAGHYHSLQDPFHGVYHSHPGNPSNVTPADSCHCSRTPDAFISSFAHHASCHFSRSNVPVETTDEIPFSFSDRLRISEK
Outline: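 MALT-1 at 3 nM final was reacted with 10 μM Ac-LRSR-Rh110-DP, with substrate addition starting the reaction. Incubation ran 60 minutes at 25° C in the dark. Percent inhibition from fluorescence across doses was fitted to a 4-parameter logistic to give IC50.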

IC50 [1] [nM] | IC50 [2] [nM] | SMILES
149 | 57 | CN(C(=O)[C@@H]1CCN(C(=O)CO)C1)[C@@H](c1ccc(N2CCCc3c2cnc2cc(Cl)nn32)cc1)C(F)(F)F (relative stereo) [CPD0073976, (3 rel-R)—N-[(1S)-1-(4-{4-chloro-2,3,7,10-tetraazatricyclo[7.4.0.0^2,6]trideca-1(9),3,5,7-tetraen-10-yl}phenyl)-2,2,2-trifluoroethyl]-1-(2-hydroxyacetyl)-N-methylpyrrolidine-3-carboxamide]
115 | 39 | CN(C(=O)[C@H]1CCN(C(=O)CO)C1)[C@@H](c1ccc(N2CCCc3c2cnc2cc(Cl)nn32)cc1)C(F)(F)F (relative stereo) [CPD0073977, (3rel-S)—N-[(1S)-1-(4-{4-chloro-2,3,7,10-tetraazatricyclo[7.4.0.0^2,6]trideca-1(9),3,5,7-tetraen-10-yl}phenyl)-2,2,2-trifluoroethyl]-1-(2-hydroxyacetyl)-N-methylpyrrolidine-3-carboxamide]
142 | 37 | C[C@@H]1CCN(c2ccc([C@H](N(C)C(=O)[C@H]3CCC(=O)NC3)C(F)(F)F)cc2)c2cnc3cc(Cl)nn3c21 (relative stereo) [CPD0074549, (3rel-S)-N-[(1S)-1-[4-[(13rel-R)-4-chloro-13-methyl-2,3,7,10-tetrazatricyclo[7.4.0.0^2,6]trideca-1(9),3,5,7-tetraen-10-yl]phenyl]-2,2,2-trifluoro-ethyl]-N-methyl-6-oxo-piperidine-3-carboxamide]
101 | 35 | C[C@@H]1CCN(c2ccc([C@H](N(C)C(=O)[C@H]3CC[S@](=N)(=O)CC3)C(F)(F)F)cc2)c2cnc3cc(F)nn3c21 (relative stereo) [CPD0074555, (1rel s, 4rel s)1-imino-N-methyl-1-oxo-N-[(1S)-2,2,2-trifluoro-1-[4-[(13 rel R)-4-fluoro-13-methyl-2,3,7,10-tetrazatricyclo[7.4.0.0^2,6]trideca-1(9),3,5,7-tetraen-10-yl]phenyl]ethyl]thiane-4-carboxamide]
168 | 62 | C[C@@H]1CCN(c2ccc([C@H](N(C)C(=O)[C@H]3CC[S@@](=N)(=O)CC3)C(F)(F)F)cc2)c2cnc3cc(F)nn3c21 (relative stereo) [CPD0074556, (1rel r, 4rel r)1-imino-N-methyl-1-oxo-N-[(1S)-2,2,2-trifluoro-1-[4-[(13 rel R)-4-fluoro-13-methyl-2,3,7,10-tetrazatricyclo[7.4.0.0^2,6]trideca-1(9),3,5,7-tetraen-10-yl]phenyl]ethyl]thiane-4-carboxamide]
92 | 29 | C[C@@H]1CCN(c2ccc([C@H](N(C)C(=O)[C@@H]3CCC(=O)NC3)C(F)(F)F)cc2)c2cnc3cc(Cl)nn3c21 (relative stereo) [CPD0074561, (3rel-R)-N-[(1S)-1-[4-[(13rel-R)-4-chloro-13-methyl-2,3,7,10-tetrazatricyclo[7.4.0.0^2,6]trideca-1(9),3,5,7-tetraen-10-yl]phenyl]-2,2,2-trifluoro-ethyl]-N-methyl-6-oxo-piperidine-3-carboxamide]
58 | 54 | CC(=O)N1CCC(C(=O)N(C)[C@@H](c2ccc(N3CC[C@H](C)c4c3cnc3cc(Cl)nn43)cc2)C(F)(F)F)CC1 (relative stereo) [CPD0074566, 1-Acetyl-N-[(1S)-1-[4-[(13rel-R)-4-chloro-13-methyl-2,3,7,10-tetrazatricyclo[7.4.0.0^2,6]trideca-1(9),3,5,7-tetraen-10-yl]phenyl]-2,2,2-trifluoro-ethyl]-N-methyl-piperidine-4-carboxamide]
87 | 31 | C[C@H]1CCN(c2ccc([C@H](N(C)C(=O)[C@@H]3CCC(=O)NC3)C(F)(F)F)cc2)c2cnc3cc(Cl)nn3c21 (relative stereo) [CPD0074567, (3rel-R)-N-[(1S)-1-[4-[(13rel-S)-4-chloro-13-methyl-2,3,7,10-tetrazatricyclo[7.4.0.0^2,6]trideca-1(9),3,5,7-tetraen-10-yl]phenyl]-2,2,2-trifluoro-ethyl]-N-methyl-6-oxo-piperidine-3-carboxamide]
230 | 95 | COCC(=O)N1CC[C@H](C(=O)N(C)[C@@H](c2ccc(N3CCCc4c3cnc3cc(Cl)nn43)cc2)C(F)(F)F)C1 (relative stereo) [CPD0075874, (3rel-R)-N-[(1S)-1-[4-(4-chloro-2,3,7,10-tetrazatricyclo[7.4.0.0^2,6]trideca-1(9),3,5,7-tetraen-10-yl)phenyl]-2,2,2-trifluoro-ethyl]-1-(2-methoxyacetyl)-N-methyl-pyrrolidine-3-carboxamide]
116 | 85 | COCC(=O)N1CC[C@@H](C(=O)N(C)[C@@H](c2ccc(N3CCCc4c3cnc3cc(Cl)nn43)cc2)C(F)(F)F)C1 (relative stereo) [CPD0075875, (3rel-S)-N-[(1S)-1-[4-(4-chloro-2,3,7,10-tetrazatricyclo[7.4.0.0^2,6]trideca-1(9),3,5,7-tetraen-10-yl)phenyl]-2,2,2-trifluoro-ethyl]-1-(2-methoxyacetyl)-N-methyl-pyrrolidine-3-carboxamide]
207 | 138 | CN(C)CC(=O)N1CC[C@H](C(=O)N(C)[C@@H](c2ccc(N3CCCc4c3cnc3cc(Cl)nn43)cc2)C(F)(F)F)C1 (relative stereo) [CPD0075876, (3rel-R)-N-[(1S)-1-[4-(4-chloro-2,3,7,10-tetrazatricyclo[7.4.0.0^2,6]trideca-1(9),3,5,7-tetraen-10-yl)phenyl]-2,2,2-trifluoro-ethyl]-1-[2-(dimethylamino)acetyl]-N-methyl-pyrrolidine-3-carboxamide]
172 | 115 | CN(C)CC(=O)N1CC[C@@H](C(=O)N(C)[C@@H](c2ccc(N3CCCc4c3cnc3cc(Cl)nn43)cc2)C(F)(F)F)C1 (relative stereo) [CPD0075877, (3rel-S)-N-[(1S)-1-[4-(4-chloro-2,3,7,10-tetrazatricyclo[7.4.0.0^2,6]trideca-1(9),3,5,7-tetraen-10-yl)phenyl]-2,2,2-trifluoro-ethyl]-1-[2-(dimethylamino)acetyl]-N-methyl-pyrrolidine-3-carboxamide]
363 | 99 | CNCC(=O)N1CC[C@H](C(=O)N(C)[C@@H](c2ccc(N3CCCc4c3cnc3cc(Cl)nn43)cc2)C(F)(F)F)C1 (relative stereo) [CPD0075880, (3 rel-R)—N-[(1S)-1-[4-(4-chloro-2,3,7,10-tetrazatricyclo[7.4.0.0^2,6]trideca-1(9),3,5,7-tetraen-10-yl)phenyl]-2,2,2-trifluoro-ethyl]-N-methyl-1-[2-(methylamino)acetyl]pyrrolidine-3-carboxamide hydrochloride]
210 | 68 | CNCC(=O)N1CC[C@@H](C(=O)N(C)[C@@H](c2ccc(N3CCCc4c3cnc3cc(Cl)nn43)cc2)C(F)(F)F)C1 (relative stereo) [CPD0075881, (3 rel-S)—N-[(1S)-1-[4-(4-chloro-2,3,7,10-tetrazatricyclo[7.4.0.0^2,6]trideca-1(9),3,5,7-tetraen-10-yl)phenyl]-2,2,2-trifluoro-ethyl]-N-methyl-1-[2-(methylamino)acetyl]pyrrolidine-3-carboxamide hydrochloride]
